Assay: In vitro 5-FU release kinetics
Assay type: physicochemical
Conditions: from hydrogel of 1 wt % PAMAM G5-(NH2)128 and PEG diacrylate575 (FIG. 9)
Procedure: In Vitro Drug Release Kinetics. Drug release was performed on 5-FU loaded into DH-G5-0.5% (5-FU/DH-G5-0.5%). Briefly, Free 5-FU (300 μg) in PBS or DH-G5-0.5% containing 300 μg of 5-FU was transferred to dialysis bags (MWCO=500-1000 Da) and suspended in 30 mL of PBS in 50-mL centrifuge tubes. The tubes were maintained at 37° C. At predetermined time intervals up to 24 h, 1 mL of medium outside the dialysis bag was withdrawn, and the amount of drug released into the medium was analyzed on HPLC against a standard curve of 5-FU. After each sampling, 1 mL of fresh PBS was added to maintain a constant volume and sink condition. All experiments were performed in triplicate.

O=c1[nH]cc(F)c(=O)[nH]1 [fluorouracil]
drug released in the first 3 hours: about 70%

— patent publication US20170313828A1, “IN SITU-FORMING OF DENDRIMER HYDROGELS USING MICHAEL-ADDITION REACTION” (Virginia Commonwealth University, priority 2016, published 2017)
